The results in this text go back to patent US10065990B2, “Cyclic peptide compound, and preparation method, pharmaceutical composition and use thereof” (HANGZHOU GUANYU BIO-MEDICAL CO., LTD, priority 2013, dated 2018).

Like-named read-outs stand apart in the source and are kept apart here.

The subject of assay [1] is N-87 (human gastric cancer cells). The assay can be described thus: MTT cancer cell growth inhibition. The assay is classed as cell-based. The note with it: Homo sapiens, 72 h, MTT, 72 hours incubation, N-87 cells; read-out: GI50 N-87. In a few lines:
(§1)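 Using a 72 h MTT format, triplicate wells of 1500 cells received compound concentrations from 10^−5 to 10^−10 M. Formazan was read at 570 nm after DMSO dissolution, and GI50 was derived from viability.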

Assay [2] concerns BGC-823 (human gastric cancer cells). Briefly: MTT cancer cell growth inhibition. Particulars: Homo sapiens, BGC-823, 72 h, MTT, 72 hours incubation, read-out: GI50 BG. The assay is classed as cell-based. The essentials:
as §1

Assay [3] relates to MOLT-4 (human acute lymphoblastic leukemia cells). Briefly: MTT cancer cell growth inhibition. The note with it: Homo sapiens, MOLT-4, 72 h, MTT, 72 hours incubation, read-out: GI50 Mol. The assay is classed as cell-based. The essentials: as §1
The subject of assay [4] is Bel-7402 (human hepatoma cells). Briefly: MTT cancer cell growth inhibition. In kind it is cell-based. The note with it: Homo sapiens, Bel-7402, 72 h, MTT, 72 hours incubation, Bel-7402 cells; read-out: GI50 Bel-7402. The essentials:
as §1

Assay [5] deals with A549 (human lung cancer cells). The assay can be described thus: MTT cancer cell growth inhibition. The note with it: Homo sapiens, A549, 72 h, MTT, 72 hours incubation, read-out: GI50 A54. In kind it is cell-based. In a few lines: as §1
Assay [6] deals with H1975 (non-small cell lung adenocarcinoma). The assay can be described thus: MTT cancer cell growth inhibition. The assay is classed as cell-based. Particulars: Homo sapiens, NCI-H1975, 72 h, MTT, 72 hours incubation, H1975 cells; read-out: GI50 H1975. The essentials:
as §1

The subject of assay [7] is lncap (prostate cancer cells). Briefly: MTT cancer cell growth inhibition. The assay is classed as cell-based. The note with it: Homo sapiens, LNCaP, 72 h, MTT, 72 hours incubation, read-out: GI50 lnca. In a few lines: as §1
Assay [8] relates to MDA-MB-231 (breast cancer cells). The assay can be described thus: MTT cancer cell growth inhibition. In kind it is cell-based. The note with it: Homo sapiens, MDA-MB-231, 72 h, read-out: GI50 MDA-MB-231, MTT, 72 hours incubation, MDA-MB-231 cells. In a few lines:
as §1

The test system of assay [9] is PANC-1 (Pac-1, human pancreatic cancer cells). Briefly: MTT cancer cell growth inhibition. In kind it is cell-based. The note with it: Homo sapiens, PANC-1, 72 h, MTT, 72 hours incubation, read-out: GI50 PAN. The essentials: as §1
Assay [10] concerns KBM5-T315I (human chronic myelogenous leukemia). Briefly: MTT cancer cell growth inhibition. In kind it is cell-based. The note with it: Homo sapiens, 72 h, MTT, 72 hours incubation, KBM5-T315I cells; read-out: GI50 KBM5-T315I. The essentials: as §1
For assay [11], the system named is MCF-7 (human breast cancer cells). The assay can be described thus: MTT cancer cell growth inhibition. The note with it: Homo sapiens, MCF7, 72 h, 72 hours incubation, read-out: GI50 MCF. In kind it is cell-based. The essentials:
as §1

In assay [12] the test system is HT1080 (human fibrosarcoma cells). Briefly: MTT cancer cell growth inhibition. In kind it is cell-based. Particulars: Homo sapiens, HT-1080, 72 h, MTT, 72 hours incubation, read-out: GI50 HT1. The essentials: as §1
The test system of assay [13] is U937 (human leukemia cells). The assay can be described thus: MTT cancer cell growth inhibition. In kind it is cell-based. The note with it: Homo sapiens, U-937, 72 h, MTT, 72 hours incubation, read-out: GI50 U93. The essentials: as §1
Assay [14] deals with Hela (human cervical cancer cells). The assay can be described thus: MTT cancer cell growth inhibition. The assay is classed as cell-based. Particulars: Homo sapiens, HeLa, 72 h, MTT, 72 hours incubation, read-out: GI50 Hela. The essentials:
as §1

The test system of assay [15] is Huh-7 (human hepatoma cells). Briefly: MTT cancer cell growth inhibition. In kind it is cell-based. The note with it: Homo sapiens, Huh-7, 72 h, MTT, 72 hours incubation, Huh-7 cells; read-out: GI50 Huh-7. In a few lines:
as §1

Assay [16] concerns HCC827 (human non-small cell lung cancer cells). Briefly: MTT cancer cell growth inhibition. The assay is classed as cell-based. Particulars: Homo sapiens, HCC827, 72 h, MTT, 72 hours incubation, HCC827 cells; read-out: GI50 HCC827. The essentials:
as §1

Assay [17] relates to SGC-7901 (human gastric cancer cells). Briefly: MTT cancer cell growth inhibition. In kind it is cell-based. The note with it: Homo sapiens, SGC-7901, 72 h, MTT, 72 hours incubation, SGC-7901 cells; read-out: GI50 SGC-7901. In a few lines: as §1
Assay [18] relates to DU145 (human prostate cancer cells). The assay can be described thus: MTT cancer cell growth inhibition. The assay is classed as cell-based. The note with it: Homo sapiens, DU-145, 72 h, MTT, 72 hours incubation, read-out: GI50 Du1. The essentials: as §1
Assay [19] concerns KBM-5 (human chronic myelogenous leukemia). Briefly: MTT cancer cell growth inhibition. The assay is classed as cell-based. Particulars: Homo sapiens, KBM5, 72 h, MTT, 72 hours incubation, KBM-5 cells; read-out: GI50 KBM-5. In a few lines:
as §1

Assay [20] relates to K562 (human leukemia cells). Briefly: MTT cancer cell growth inhibition. In kind it is cell-based. Particulars: Homo sapiens, K562, 72 h, MTT, 72 hours incubation, K562 cells; read-out: GI50 K562. The essentials: as §1
In assay [21] the target is T1, HDAC7 (Homo sapiens, UniProt Q8WUI4).
T1 sequence (Q8WUI4 1-952): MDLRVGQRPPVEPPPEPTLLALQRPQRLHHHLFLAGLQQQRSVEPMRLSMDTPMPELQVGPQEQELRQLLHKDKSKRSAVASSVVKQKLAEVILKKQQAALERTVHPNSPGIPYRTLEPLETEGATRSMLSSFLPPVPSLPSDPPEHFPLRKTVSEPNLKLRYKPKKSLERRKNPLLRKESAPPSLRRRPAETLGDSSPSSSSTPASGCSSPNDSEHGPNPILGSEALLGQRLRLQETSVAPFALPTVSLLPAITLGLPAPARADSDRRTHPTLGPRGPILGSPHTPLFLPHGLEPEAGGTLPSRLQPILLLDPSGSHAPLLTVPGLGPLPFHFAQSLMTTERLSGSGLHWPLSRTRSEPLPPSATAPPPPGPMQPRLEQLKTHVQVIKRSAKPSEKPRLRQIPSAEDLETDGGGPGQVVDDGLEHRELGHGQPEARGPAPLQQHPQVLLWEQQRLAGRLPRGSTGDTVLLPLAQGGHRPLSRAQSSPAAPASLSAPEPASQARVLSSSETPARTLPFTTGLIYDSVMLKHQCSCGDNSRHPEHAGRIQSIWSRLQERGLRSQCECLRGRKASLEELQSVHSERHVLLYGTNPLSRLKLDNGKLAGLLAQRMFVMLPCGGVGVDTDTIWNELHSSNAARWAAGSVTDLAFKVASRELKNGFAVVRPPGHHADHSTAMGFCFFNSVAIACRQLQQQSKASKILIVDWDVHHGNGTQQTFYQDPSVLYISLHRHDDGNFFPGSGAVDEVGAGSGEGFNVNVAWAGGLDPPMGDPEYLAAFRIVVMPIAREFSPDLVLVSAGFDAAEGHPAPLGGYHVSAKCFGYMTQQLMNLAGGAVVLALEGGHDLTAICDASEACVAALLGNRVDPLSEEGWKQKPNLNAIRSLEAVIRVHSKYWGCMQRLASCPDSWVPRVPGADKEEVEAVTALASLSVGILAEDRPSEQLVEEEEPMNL
Briefly: HDAC biochemical activity measurement (fluorescent substrate deacetylation).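 Note: fluorogenic deacetylation assay using acetyl-lysine substrate at 20 µM, enzyme and compound incubated 30 min at 37 °C, then developer added, fluorescence read at 360/460 nm.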 Particulars: HDAC7; 37° C. 30 minutes.

With `C/C=C1\NC(=O)c2nc(ccc2SC)CNC(=O)C[C@@H](/C=C/CCSC(C)=O)OC(=O)[C@H](Cc2cccc3ccccc23)NC1=O` [Compound 198], the GI50 in assay [1] was 38 nM; in assay [2] (BGC-823 cells) it was 70 nM; in assay [3] (MOLT-4 cells), 20 nM; in [4], 63 nM; in [5] (A549 cells) it was 50 nM; in assay [6], 31 nM. Besides, the GI50 came out at 90 nM in assay [7] (lncap cells); 45 nM in [8]; 30 nM in assay [9] (PANC-1 cells); 43 nM in assay [10]; 110 nM in assay [11] (MCF-7 cells); 20 nM in assay [12] (HT1080 cells). Moreover, the GI50 worked out at 50 nM in [13] (U937 cells); 30 nM in [14] (Hela cells); 47 nM in [15]; 57 nM in assay [16]; 16 nM in assay [17]; 50 nM in assay [18] (DU145 cells). Also, the GI50 came out at 99 nM in [19] and 79 nM in assay [20]. For the same compound, the “IC50 HDAC7” value in assay [21] is listed as “no activity”.

As for `C/C=C1\NC(=O)c2nc(ccc2SC)CNC(=O)C[C@@H](/C=C/CCSC(C)=O)OC(=O)[C@H](C(C)C)NC1=O` [Compound 165], the GI50 in [1] worked out at 32 nM; in assay [2] (BGC-823 cells), 20 nM; in assay [3] (MOLT-4 cells), 40 nM; in [4] it was 30 nM; in [5] (A549 cells), 30 nM; in assay [6], 12 nM. In addition, the GI50 in assay [7] (lncap cells) came to 20 nM; in assay [8], 53 nM; in assay [9] (PANC-1 cells) it was 70 nM; in assay [10], 34 nM; in [11] (MCF-7 cells) it was 30 nM; in assay [12] (HT1080 cells), 60 nM. Also, the GI50 in assay [13] (U937 cells) is 50 nM; in [14] (Hela cells), 60 nM; in assay [15] it was 28 nM; in assay [16], 43 nM; in [17] it was 76 nM; in assay [18] (DU145 cells), 60 nM. For the same compound, the GI50 in assay [19] turned out to be 41 nM; in assay [20], 57 nM. Moreover, the “IC50 HDAC7” value in [21] is on record as “no activity”.

Consider `C/C=C1\NC(=O)c2nc(ccc2SC)CNC(=O)C[C@@H](/C=C/CCSC(C)=O)OC(=O)[C@H](Cc2ccc(O)cc2)NC1=O` [Compound 201], for which the GI50 was 32 nM in assay [1]; 50 nM in assay [2] (BGC-823 cells); 20 nM in assay [3] (MOLT-4 cells); 69 nM in assay [4]; 30 nM in assay [5] (A549 cells); 73 nM in [6]. The GI50 worked out at 70 nM in assay [7] (lncap cells); 38 nM in assay [8]; 60 nM in [9] (PANC-1 cells); 35 nM in [10]; 40 nM in [11] (MCF-7 cells); 60 nM in [12] (HT1080 cells). The GI50 in assay [13] (U937 cells) was determined as 40 nM; in assay [14] (Hela cells), 30 nM; in assay [15] it was 90 nM; in assay [16], 11 nM; in [17], 51 nM; in assay [18] (DU145 cells), 30 nM. Moreover, the GI50 in assay [19] came to 29 nM; in assay [20] it was 35 nM. For the same compound, the “IC50 HDAC7” value in assay [21] was “no activity”.

`C/C=C1\NC(=O)c2nc(ccc2F)CNC(=O)C[C@@H](/C=C/CCSC(C)=O)OC(=O)[C@H](CCCCNC(=O)OCC2c3ccccc3-c3ccccc32)NC1=O` [Example 75]: the GI50 in assay [1] came to 22 nM; in [2], 20 nM; in [3] it was 30 nM; in [4], 42 nM; in [5], 40 nM; in assay [6] it was 28 nM. Further, the GI50 in assay [7] came out at 30 nM; in assay [8], 35 nM; in assay [9], 40 nM; in [10], 26 nM; in [11] it was 20 nM; in assay [12], 40 nM. The GI50 is 20 nM in [13]; 60 nM in assay [14]; 35 nM in [15]; 42 nM in assay [16]; 41 nM in assay [17]; 20 nM in [18]. The GI50 in assay [19] turned out to be 61 nM; in [20] it was 28 nM. The “IC50 HDAC7” value in [21] is reported as “no activity”.
